The values that follow come from ChEMBL document CHEMBL4715723, “Discovery and development of benzo-[1,2,4]-triazolo-[1,4]-oxazepine GPR142 agonists for the treatment of diabetes” (Bioorg Med Chem Lett, 2016).

The source made the active and inactive calls. The rule behind the calls is not given here. A value given as a limit tells only on which side of the number the result lay.

One data set deals with Cytochrome P450 2C9 (Homo sapiens, UniProt P11712). As to the kind of experiment: Inhibition of human liver microsomes CYP2C9 using diclofenac as substrate by MUX-MS/MS analysis. The data set is classed as ADME, Microsome. (Liver microsomes are vesicles of endoplasmic reticulum, rich in cytochrome P450 enzymes.)
The target in another data set is Cytochrome P450 2D6 (Homo sapiens, UniProt P10635). Briefly: Inhibition of human liver microsomes CYP2D6 using dextromethorphan as substrate by MUX-MS/MS analysis. The data set is classed as ADME, Microsome.
The target of the next data set is Cytochrome P450 3A4 (Homo sapiens, UniProt P08684). Briefly: Inhibition of human liver microsomes CYP3A4 using testosterone as substrate by MUX-MS/MS analysis. The data set is classed as ADME, Microsome.
Data set [1] is described as follows: Clearance in rat at 2 mg/kg, po or 1 mg/kg, iv. Format: ADME, organism-based. Conditions: in vivo.
Data set [2] is described as follows: Half life in rat at 2 mg/kg, po or 1 mg/kg, iv. The data set is classed as ADME, organism-based. Conditions: in vivo.
Data set [3] is described as follows: Volume of distribution at steady state in rat at 2 mg/kg, po or 1 mg/kg, iv. Format: ADME, organism-based. The note with it: in vivo, read-out: Vdss.
Data set [4] in a line: Oral bioavailability in rat at 2 mg/kg. Format: ADME, organism-based. The note with it: in vivo.
The nature of data set [5]: Protein binding in rat plasma assessed as unbound fraction. The data set is classed as ADME, cell-free.
Data set [6] deals with Mus musculus. As to the kind of experiment: Antidiabetic activity in […] mouse assessed as reduction in dextrose-induced blood glucose peak administered po before dextrose stimulation and measured upto 120 mins after dextrose administration by OGTT assay. The data set is classed as functional, organism-based. Conditions: time min <=120.
Data set [7] deals with Voltage-gated inwardly rectifying potassium channel KCNH2 (Homo sapiens, UniProt Q12809). As to the kind of experiment: Inhibition of human ERG expressed in HEK293 cells assessed as reduction in S35-MK-0499 binding. The data set is classed as cell-based.
In data set [8] the target is T1, Probable G-protein coupled receptor 142 (Homo sapiens, UniProt Q7Z601).
T1 sequence (Q7Z601 whole entry): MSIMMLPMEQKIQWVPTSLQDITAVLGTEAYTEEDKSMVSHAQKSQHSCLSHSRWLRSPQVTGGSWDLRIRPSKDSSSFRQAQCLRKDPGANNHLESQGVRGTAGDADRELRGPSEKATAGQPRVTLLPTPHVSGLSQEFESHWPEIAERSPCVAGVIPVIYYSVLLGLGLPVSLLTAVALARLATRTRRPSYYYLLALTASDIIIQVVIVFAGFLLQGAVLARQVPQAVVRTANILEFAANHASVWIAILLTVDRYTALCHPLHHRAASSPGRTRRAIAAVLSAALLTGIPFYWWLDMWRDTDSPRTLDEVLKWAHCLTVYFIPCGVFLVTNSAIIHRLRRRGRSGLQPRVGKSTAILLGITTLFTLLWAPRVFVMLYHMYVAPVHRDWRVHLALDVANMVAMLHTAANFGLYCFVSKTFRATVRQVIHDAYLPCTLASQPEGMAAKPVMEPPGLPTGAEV
Briefly: Agonist activity at human GPR142 expressed in CHO cells measured for 3 mins by Fluo-4M dye based FLIPR assay. Format: cell-based. Conditions: read-out: IC50 (the source's name).

For data set [9], the target named is T2, Probable G-protein coupled receptor 142 (Mus musculus, UniProt Q7TQN9).
T2 sequence (Q7TQN9 whole entry): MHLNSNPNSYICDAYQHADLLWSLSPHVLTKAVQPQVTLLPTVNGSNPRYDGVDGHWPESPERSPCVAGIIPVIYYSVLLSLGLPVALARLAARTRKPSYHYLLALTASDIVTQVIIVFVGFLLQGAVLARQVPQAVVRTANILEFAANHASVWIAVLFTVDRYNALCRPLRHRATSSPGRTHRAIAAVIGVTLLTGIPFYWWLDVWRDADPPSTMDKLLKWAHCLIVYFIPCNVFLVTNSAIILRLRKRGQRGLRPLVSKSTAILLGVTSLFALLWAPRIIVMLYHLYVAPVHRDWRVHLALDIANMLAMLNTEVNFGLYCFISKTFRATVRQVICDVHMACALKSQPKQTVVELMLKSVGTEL
Briefly: Agonist activity at mouse GPR142 expressed in CHO cells measured for 3 mins by Fluo-4M dye based FLIPR assay. Format: cell-based. Conditions: read-out: IC50 (the source's name).

For data set [10], the system named is Mus musculus. As to the kind of experiment: Antidiabetic activity in […] mouse harboring GPR142 deficient assessed as reduction in dextrose-induced blood glucose peak at 30 mg/kg, po administered before dextrose stimulation and measured upto 120 mins after dextrose administration by OGTT assay. The data set is classed as functional, organism-based. Conditions: time min <=120.

Sequence of Cytochrome P450 2D6 (P10635 whole entry): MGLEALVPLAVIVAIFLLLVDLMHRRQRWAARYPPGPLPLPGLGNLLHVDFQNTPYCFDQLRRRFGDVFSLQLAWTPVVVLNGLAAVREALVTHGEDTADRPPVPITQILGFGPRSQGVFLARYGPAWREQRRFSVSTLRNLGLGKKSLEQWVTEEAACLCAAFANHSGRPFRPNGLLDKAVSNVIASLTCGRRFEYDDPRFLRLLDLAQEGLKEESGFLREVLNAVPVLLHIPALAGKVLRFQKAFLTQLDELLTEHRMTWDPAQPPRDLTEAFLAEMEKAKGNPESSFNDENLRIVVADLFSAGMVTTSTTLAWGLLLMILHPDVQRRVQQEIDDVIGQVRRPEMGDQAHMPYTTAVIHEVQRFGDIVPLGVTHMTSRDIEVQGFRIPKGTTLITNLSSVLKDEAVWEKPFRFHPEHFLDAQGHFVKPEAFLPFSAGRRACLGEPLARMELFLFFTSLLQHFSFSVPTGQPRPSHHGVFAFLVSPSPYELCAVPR
Sequence of Cytochrome P450 3A4 (P08684 whole entry): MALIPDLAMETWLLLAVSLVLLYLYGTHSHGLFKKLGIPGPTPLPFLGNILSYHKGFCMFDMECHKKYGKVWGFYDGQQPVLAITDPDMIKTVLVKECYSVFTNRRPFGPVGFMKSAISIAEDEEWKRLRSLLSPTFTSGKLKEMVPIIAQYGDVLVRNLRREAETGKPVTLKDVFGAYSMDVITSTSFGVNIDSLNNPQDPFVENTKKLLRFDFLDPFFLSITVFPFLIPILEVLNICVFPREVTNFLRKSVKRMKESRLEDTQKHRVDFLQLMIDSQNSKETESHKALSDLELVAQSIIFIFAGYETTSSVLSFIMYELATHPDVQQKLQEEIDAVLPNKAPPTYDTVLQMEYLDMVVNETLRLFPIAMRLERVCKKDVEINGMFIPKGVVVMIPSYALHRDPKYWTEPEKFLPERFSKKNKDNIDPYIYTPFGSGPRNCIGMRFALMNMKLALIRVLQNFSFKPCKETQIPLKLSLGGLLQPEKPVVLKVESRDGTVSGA
Sequence of Cytochrome P450 2C9 (P11712 whole entry): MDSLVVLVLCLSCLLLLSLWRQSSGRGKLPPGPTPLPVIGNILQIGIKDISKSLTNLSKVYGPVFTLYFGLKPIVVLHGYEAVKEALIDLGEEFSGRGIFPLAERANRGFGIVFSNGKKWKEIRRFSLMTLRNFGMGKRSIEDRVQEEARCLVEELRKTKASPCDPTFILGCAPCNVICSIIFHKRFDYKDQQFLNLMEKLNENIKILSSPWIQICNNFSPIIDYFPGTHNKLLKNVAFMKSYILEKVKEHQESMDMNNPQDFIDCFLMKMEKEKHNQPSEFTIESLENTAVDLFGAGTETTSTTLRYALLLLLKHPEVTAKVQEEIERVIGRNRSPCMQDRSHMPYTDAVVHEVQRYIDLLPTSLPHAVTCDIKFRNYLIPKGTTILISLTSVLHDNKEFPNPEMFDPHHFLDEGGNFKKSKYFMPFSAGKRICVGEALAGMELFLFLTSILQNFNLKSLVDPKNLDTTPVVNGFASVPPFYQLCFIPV
Sequence of Voltage-gated inwardly rectifying potassium channel KCNH2 (Q12809 whole entry): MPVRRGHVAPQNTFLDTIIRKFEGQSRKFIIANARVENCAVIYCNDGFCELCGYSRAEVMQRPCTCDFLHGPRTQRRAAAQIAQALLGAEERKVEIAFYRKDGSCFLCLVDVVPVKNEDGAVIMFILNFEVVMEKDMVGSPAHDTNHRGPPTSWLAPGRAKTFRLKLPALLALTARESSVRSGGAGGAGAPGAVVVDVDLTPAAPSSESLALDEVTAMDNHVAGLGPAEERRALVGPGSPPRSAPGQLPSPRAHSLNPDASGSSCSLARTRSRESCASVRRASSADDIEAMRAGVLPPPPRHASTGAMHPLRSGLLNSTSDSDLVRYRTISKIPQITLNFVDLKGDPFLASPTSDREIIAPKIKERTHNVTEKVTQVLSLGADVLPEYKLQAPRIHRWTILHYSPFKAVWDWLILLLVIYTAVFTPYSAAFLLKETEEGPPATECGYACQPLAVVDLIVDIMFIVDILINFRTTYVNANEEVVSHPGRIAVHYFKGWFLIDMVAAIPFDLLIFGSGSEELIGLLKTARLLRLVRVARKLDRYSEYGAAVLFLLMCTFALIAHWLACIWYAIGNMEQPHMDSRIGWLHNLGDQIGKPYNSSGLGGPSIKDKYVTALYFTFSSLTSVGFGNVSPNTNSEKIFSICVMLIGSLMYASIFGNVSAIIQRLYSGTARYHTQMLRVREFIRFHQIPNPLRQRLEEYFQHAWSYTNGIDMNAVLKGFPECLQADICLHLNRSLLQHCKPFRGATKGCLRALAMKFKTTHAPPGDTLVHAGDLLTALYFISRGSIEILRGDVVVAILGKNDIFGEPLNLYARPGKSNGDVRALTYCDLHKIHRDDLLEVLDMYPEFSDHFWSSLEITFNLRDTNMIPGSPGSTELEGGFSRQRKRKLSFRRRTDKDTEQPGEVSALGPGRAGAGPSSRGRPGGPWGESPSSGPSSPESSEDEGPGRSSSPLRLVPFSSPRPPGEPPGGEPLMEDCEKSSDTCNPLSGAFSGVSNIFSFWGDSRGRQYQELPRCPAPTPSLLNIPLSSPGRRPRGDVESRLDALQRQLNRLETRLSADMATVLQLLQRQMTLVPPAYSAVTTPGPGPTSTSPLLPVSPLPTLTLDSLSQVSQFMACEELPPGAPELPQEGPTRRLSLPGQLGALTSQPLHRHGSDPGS

As for `Cc1cc(-c2ccc3c(c2)-c2nnc(Nc4cccc(Cl)c4)n2CCO3)ccn1`, the half-maximal inhibitory concentration (IC50) (as a rule, the concentration needed to halve the response being measured) against Cytochrome P450 2C9 was 3440 nM; against Cytochrome P450 2D6, 792 nM; on Cytochrome P450 3A4, 11800 nM. The compound also showed a clearance in data set [1] of 7.8 mL/min/kg. For the same compound, the half-life (as a rule, the time in which the quantity being followed falls by half) in data set [2] is 2.5 h. The Vd in data set [3] is 1.9 L/kg. The bioavailability – broadly, dose-corrected exposure relative to a reference, in per cent – in [4] stood at 40%. Besides, the fraction unbound (as a rule, free concentration divided by total concentration) in data set [5] was 0.0337.
In the case of `Cc1cc(-c2ccc3c(c2)-c2nnc(Oc4cccc(Cl)c4F)n2CCO3)ccn1`, the Activity result in the data set on Mus musculus [6] is “Dose-dependent effect”. For the same compound, the IC50 turned out to be 5260 nM at Cytochrome P450 2C9, 12100 nM against Cytochrome P450 2D6, 8390 nM on Cytochrome P450 3A4 and 2410 nM in [7]. Also, the EC50 in [8] worked out at 56 nM. In addition, in data set [1], the clearance stood at 8.9 mL/min/kg. In addition, in data set [2], the half-life is 2 h. In data set [3], the Vd stood at 1.6 L/kg. In data set [4], this compound gave a bioavailability of 67%. Moreover, the unbound share (fraction unbound) in data set [5] turned out to be 0.0111.
For the compound `O=C(Nc1ccc(Cl)c(Cl)c1)N1CCOc2ccc(-c3ccncc3)cc2C1`, the IC50 against Cytochrome P450 2D6 came to 76000 nM; in data set [7] (hek293), 2030 nM. Moreover, the EC50 in data set [8] was found to be 140 nM; in [9], 138 nM. The clearance in [1] was 88.6 mL/min/kg. This compound had a half-life in data set [2] of 0.71 h. The Vd in [3] was determined as 3.4 L/kg. Moreover, the bioavailability in data set [4] was 6%. For the same compound, the fraction unbound in data set [5] turned out to be 0.0015.
For the compound `FC(F)(F)Oc1cccc(Nc2nnc3n2CCOc2ccc(-c4ccncc4)cc2-3)c1`, in the data set with Mus musculus [10], the outcome was inactive. The Activity result in the data set with Mus musculus [6] was “Dose-dependent effect”. The IC50 against Cytochrome P450 2C9 stood at 934 nM; at Cytochrome P450 2D6, 802 nM; on Cytochrome P450 3A4 it was 1610 nM; in data set [7] it was 605 nM. The EC50 in [8] was 63 nM. The clearance in data set [1] worked out at 23.9 mL/min/kg. The compound further showed a half-life in [2] of 1 h. Besides, the Vd in data set [3] came out at 2.2 L/kg. For the same compound, the bioavailability in [4] is 40%. Further, the fraction unbound in data set [5] amounted to 0.0041.
As to `CCc1cc(-c2ccc3c(c2)-c2nnc(Nc4cccc(C(F)(F)F)c4)n2CCO3)ccn1`, the IC50 against Cytochrome P450 2C9 was 3540 nM; at Cytochrome P450 2D6, 2340 nM; against Cytochrome P450 3A4 it was over 50000 nM; in [7], 334 nM. Further, the EC50 in data set [8] was determined as 74 nM. For the same compound, the clearance in data set [1] was found to be 14 mL/min/kg. Further, the half-life in data set [2] was 1.4 h. Besides, the Vd in [3] was 2.6 L/kg. Also, the bioavailability in [4] turned out to be 97%. Besides, the fraction unbound in [5] is 0.0034.
